Each block holds one molecule with its values, some of them ahead of it. Peptide text beside a SMILES is read from it. * marks the point of attachment. Cbz = O=C(OCc1ccccc1)*
Legend:
[1] = test system: NotchΔE-EGFP; experiment: cells; format: cell-based; settings: for activity in NotchΔE-EGFP cells (enuc/nuc ratios): SAR and prior-art comparison, FIG. 5a/5b; for change of reporter localization quantified by automated microscopy: assay validation, monensin 6 h dose-dependent, MG132 1 μM 16 h
From the text: To identify novel regulatory factors involved in Notch trafficking/processing an image-based high content screen was set up. […] NotchΔE-EGFP is a direct substrate for γ-secretase at the PM, and under physiological conditions is proteolytically processed to NICD-EGFP that translocates into the nucleus (for scheme see FIG. 1b), resulting in a strong nuclear EGFP-staining in steady state^15 (FIG. 1d). […] Importantly, changes in subcellular localization of the reporter are amenable to quantitation by automated microscopy^15. Accordingly, reporter fluorescence was determined in the nucleus (nuc) and in a ring around the nucleus (enuc), and the ratio enuc/nuc was evaluated (schematized in FIG. 1c). Thereafter, the assay design was functionally validated. […] The assay also reliably detected trafficking defects in the secretory pathway. […] Taken together, the assay was validated for reliably detecting concentration and time dependent changes in trafficking and processing of the Notch reporter.
Cells were seeded in 96-well plates at a density of 5000 cells/well in 100 μl medium. The next day, 100 μl medium containing the respective test compounds was added. Cells were incubated for 16 h, fixed and processed for automated microscopy. For the putative gamma-secretase inhibitors the enuc intensity was divided by the DAPT control and for the trafficking inhibitors normalized percentage inhibition against DAPT/DMSO controls of log 2 transformed nuc/enuc ratios were calculated. Relative activity values were read into “R” (http://www.r-project.org/) and EC50 estimates were calculated using four-parameter log-logistic fit with the package “drc”^51.
Images were acquired on an ArrayScan VTi automated microscope (ThermoFisher) and numerical data were extracted with the Compartmental Analysis BioApplication of the bundled software suite. Compound screening raw data were collected at the FMP and data transformation was performed according to standard procedures (ref 17 and supp. Refs 6-7).

[2] = test system: zebrafish embryos; experiment: Zebrafish embryo Notch phenotype (somites, ngn1 qPCR and ISH); format: in vivo, zebrafish Danio rerio; settings: for ngn1 positive cell clusters along the spinal cord (ISH): compared to DMSO-treated control embryos; for ngn1 mRNA levels (qPCR): relative to DMSO controls
Procedure: (§1) Cells were incubated with DAPT or 10 μM of the indicated compounds (50 μM in case of FLI-15 and -20) and after 16 h a luciferase assay was performed. […] Changes in relative gene expression levels (fold change) relative to the expression levels in DMSO controls are represented as the mean+/−SD, asterisks indicate p<0.01. Each measurement was taken from two independent samples. Each reaction was measured in triplicate. Changes in the relative expression of ngn1 were standardized to the expression of the housekeeping gene ef1a at 20 hpf. c) ISH with riboprobes specific for ngn1 was performed on dechorionated stage 4 hpf zebrafish embryos. Anterior is to the left, dorsal to the top. Magnifications of the somite region (small box) are shown. Arrows indicate larger ngn1 clusters or stronger ngn1 staining. s, sensory neurons; i, intermediate neurons; m, motor neurons.
FIG. 11: Selected compounds affect somite formation and neurogenesis in vivo in zebrafish embryos. a) Lateral view of typical representative phenotypes induced by DAPT treatment, which were used as a reference to score the effect of compounds. […] Images were taken at 24 hpf. b) Pie chart showing the cumulative relative frequency of the phenotypes in a) at 24 hpf in embryos treated with 20, 50 and 100 iM of the indicated compounds. c) ISH with riboprobes specific for ngn1 was performed on dechorionated stage 4 hpf zebrafish embryos. Anterior is to the left, dorsal to the top. Magnifications of the developing head (box) are shown. Arrows indicate larger ngn1 clusters or stronger ngn1 staining. t, telencephalon; p, protectum; h, hindbrain; d, diencephalon; tg, tegmentum; vrc, ventral rostral cluster.
(§2) We wanted to test whether the results obtained with the NotchΔE-EGFP construct are relevant for endogenous Notch signaling. Therefore we made use of C2C12 cells, a well established model for muscle development that expresses endogenous Notch^21,22. After stimulating endogenous Notch signaling by transfecting the Notch ligand Delta, Notch activity was measured by a luciferase assay using a Notch reporter^15 in the presence or absence of compounds (FIG. 4a). […] Next, we tested whether selected compounds would affect Notch signaling in vivo. […] Compounds were added to dechorionated stage 4 hpf zebrafish embryos and the effects were analyzed after 24 h by morphological inspection of somite formation. Phenotypes were ranked to four categories, normal somites, mild somite defects, strong somite defects and developmental delay. […] As an additional parameter we decided to analyze Notch-dependent genes involved in neurogenesis. Primary neurogenesis in zebrafish involves the selection of neuroblasts (repressed by Notch) from proneural clusters (Notch expressing cells), a process regulated in a negative manner by Notch-dependent lateral inhibition^25. Accordingly, neuroblast cells that express the neuronal specification factor neurogenin (ngn1^26) became more abundant when Notch signaling was impaired, for instance upon DAPT treatment^23,27. qPCR analyses on mRNA extracted from equivalent sets of embryos was performed for ngn1 expression (FIG. 4b). […] To confirm the data obtained by qPCR, whole-mount in-situ hybridizations (ISH) using an ngn1 specific riboprobe were performed (FIG. 4c, FIG. 11c). […] Taken together, FLI-06, -14, -15, -19 and -20 inhibited endogenous Notch signaling in vitro and in vivo, corroborating the NotchΔE-EGFP reporter data.
Embryos were obtained from natural spawning of wild-type TüAB strain adults, raised and staged according to supp. Ref 14. DAPT and compounds were applied at 50 iM in E3 embryo medium to zebrafish embryos with chorions torn but not completely removed from sphere stage until the stage of analysis, according to ref 23. Control embryos were mock treated with the same concentration of DMSO dissolved in E3 embryo medium. […]

[3] = test system: γ-secretase; experiment: In vitro γ-secretase assay with isolated membranes; format: biochemical; settings: 37° C.
Procedure: (§3) FIG. 3: Effect of compounds on NotchΔE-EGFP, APP and Klotho trafficking and processing. a) HEK293 stably expressing APPswe or Klotho (KI) were incubated with DAPT or compounds (10 μM) for 16 h. Media were collected, cells lysed and both assayed by Western blotting using indicated antibodies. m, mature; im, immature; s, shedded ectodomain; CTF, C-terminal fragment. b) Membranes from HeLa-NotchΔE-EGFP and APPswe cells were isolated and subjected to a γ-secretase in vitro assay in the presence of DAPT or compounds as indicated. NICD and AICD were detected by Western Blotting using antibodies against the C-terminus of APP (top) or antibodies specific for NICD (bottom). c) Quantitation from 5 independent experiments.
To test whether FLI-06 affected other membrane proteins, Klotho, a type I protein processed like APP and Notch^20, was analyzed. […] To analyze γ-secretase activity, in vitro assays using isolated membranes were performed (FIG. 3b, c). Production of NICD-EGFP and AICD (APP intracellular domain) were assayed. Both were produced in vitro at 37° C. but not at 4° C., and their production was inhibited by DAPT.
For assaying AICD formation, membranes of HEK293 cells stably expressing APP with the Swedish mutation were isolated and incubated for 4 h at 37° C. according to Sastre et al.^52. For assaying NICD formation, membranes from HeLa NotchΔE-EGFP cells were mixed with membranes from HeLa NotchΔE-EGFP cells that were pre-treated with 10 μM DAPT overnight to enrich substrate. After incubation samples were loaded onto either 8% SDS-PA gels (NICD) or 10-20% Tris-Tricine gels (AICD), blotted and probed with cleaved-Notch antibody or antibody 6687 against APP C-terminus^53. Chemoluminescence was quantified on a LAS-4000 (Fuji) with MultiGauge software.

[4] = test system: NotchΔE-EGFP; experiment: Fluorescence microscopy of reporter localization in HeLa NotchΔE-EGFP cells; format: cell-based; settings: 10 μM compound, 24 h
Procedure: FIG. 10: Phenotypes of Notch inhibitors are fully reversible. HeLa NotchΔE-EGFP cells plated in LabTek coverglass were incubated for 18 h with 10 iM of indicated compounds, washed and incubated for indicated times in cell culture medium. Cells were imaged by live-microscopy. […] Scalebar, 10 im.
For a detailed analysis of subcelluar distribution of NotchΔE/NICD the resolution of the HCS images was not sufficient. Therefore, the reporter cell line was plated on coverslips and incubated with 10 μM of individual compounds from the final hit list. After 24 h the localization of NotchΔE-EGFP/NICD-EGFP was determined by fluorescence microscopy. […] (FIG. 8).
Immunofluorescence stainings were made using standard procedures^55. Imaging was performed on a Zeiss Axiovert200 or an Axio Imager, using 63× 1.4NA objectives and Zeiss Axiovision software. For live-imaging cells were plated on Lab-Tek chambered coverglass (Thermo-Fisher). Images were assembled and processed using Adobe Photoshop. For displaying weakly stained ER-tubules/sheets non-linear changes in gamma-settings were used.

[5] = test system: NotchΔE-EGFP; experiment: Western blot of NotchΔE-EGFP processing in HeLa NotchΔE-EGFP lysates; format: cell-based; settings: 10 μM, 18 h
Procedure: FIG. 2: Selected compounds from final hit list show distinct phenotypes. Hela NotchΔE-EGFP cells were incubated with compounds (10 μM) for 18 h, fixed and analyzed by fluorescence microscopy (a) or lysed, separated by SDS-PAGE, blotted and probed with antibodies against GFP and NICD (b). Tubulin served as loading control. c) Quantitation of NotchΔE-EGFP accumulation and NICD production from 3-4 experiments as shown in (b). […] Arrows, plasma membrane; scalebar, 10 μm.
Next, lysates of HeLa NotchΔE-EGFP cells treated with compounds were analyzed for processing of NotchΔE-EGFP by Western blot using antibodies specific for EGFP and NICD (FIG. 2b, c). The GFP antibody detected both the uncleaved reporter NotchΔE-EGFP and the γ-secretase product NICD-EGFP, whereas the NICD-specific antibody specifically detected cleaved NICD-EGFP. […] The observed effects were not cell type specific, as they were also apparent in U2OS cells stably expressing NotchΔE-EGFP (FIG. 9).

[6] = test system: APP; experiment: APP processing in HEK293 cells stably expressing APPswe; format: cell-based; settings: 10 μM, 16 h
Procedure: as §3
To test if the compounds that affected NotchΔE-EGFP processing also affected APP processing, HEK293 cells were used that stably expressed APPswe, a mutated APP that yields robust amounts of Aβ^18. […] All other compounds had no effect on APPCTF or Aβ.
APP, APPs, APPCTF and Aβ detection was as described before^54 using antibodies 22C11 for APP and APPs, 6687 for APPCTF and 3552 and 2D8 for Aβ. Klotho was detected as described in Bloch et al.^20. Chemoluminescence was quantified on a LAS-4000 (Fuji) with MultiGauge software.

[7] = test system: endogenous Notch signaling; experiment: Luciferase Notch reporter assay in C2C12 cells transfected with Delta; format: cell-based; settings: 10 μM, 16 h
Procedure: as §1, §2
Endogenous Notch signaling in C2C12 was determined by a luciferase assay using a 12xCSL-luciferase reporter and transfected Delta as described before^15.

SMILES: COCCOC(=O)C1=C(C)NC2=C(C(=O)CC(c3ccc(Cl)cc3)C2)C1c1ccccc1F (stereo not drawn) [C3]
- activity in NotchΔE-EGFP cells (enuc/nuc ratios) [1]: no activity

SMILES: COCCOC(=O)C1=C(C)NC2=C(C(=O)CC(c3ccccc3)C2)C1c1ccccc1F (stereo not drawn) [C4]
- activity in NotchΔE-EGFP cells (enuc/nuc ratios) [1]: no activity

SMILES: COC(=O)C1=C(C)NC2=C(C(=O)CC(c3ccc(Cl)cc3)C2)C1c1ccccc1F (stereo not drawn) [C5]
- activity in NotchΔE-EGFP cells (enuc/nuc ratios) [1]: no activity

- NICD-EGFP and AICD production in isolated membranes [3]: inhibited
SMILES: C[C@H](NC(=O)Cc1cc(F)cc(F)c1)C(=O)N[C@H](C(=O)OC(C)(C)C)c1ccccc1 [DAPT, reference compound]
- ngn1 positive cell clusters in the developing brain (ISH) ([2]; 50 μM, compared to DMSO controls): differentially expanded
- ngn1 positive cell clusters along the spinal cord (ISH) ([2]; 50 μM): expanded and denser clusters of ngn1 positive cells
- ngn1 mRNA levels (qPCR) ([2]; 50 μM): significantly increased
- somite/morphological phenotype ([2]; embryos treated from 4-6 hpf, scored at 24 hpf): either defective somitogenesis (mild), head and trunk malformation (strong) or developmental delay (delayed)
- cell viability by visual inspection [1]: viable at all times
- t1/2 of decrease of NICD-EGFP fluorescence in the nucleus ([1]; 1 μM DAPT): 4.7 ± 1.0 h
- t9/10 of decrease of NICD-EGFP fluorescence in the nucleus ([1]; 1 μM DAPT): 8.6 ± 2.9 h
- localization of NotchΔE-EGFP/NICD-EGFP [4]: accumulated at the PM

SMILES: COc1ccc(C(=O)O)cc1Nc1nc2ccccc2nc1NS(=O)(=O)c1ccc(Cl)cc1 [FLI-16]
- ngn1 positive cell clusters along the spinal cord (ISH) ([2]; 50 μM): reduced
- ngn1 mRNA levels (qPCR) ([2]; 50 μM): did not induce significant changes
- NotchΔE-EGFP processing [5]: no influence on NotchΔE-EGFP processing
- NICD-EGFP and AICD production in isolated membranes [3]: did not affect in vitro γ-secretase activity
- localization of NotchΔE-EGFP/NICD-EGFP [4]: did not alter the reporter localization
- APPs (shedded ectodomain) secretion [6]: reduced APPs secretion
- inhibition of endogenous Notch signaling [7]: strongly

SMILES: COCCOC(=O)C1=C(C)NC2=C(C(=O)CC(c3ccccc3OC)C2)C1c1cccc(O)c1 (stereo not drawn) [HPI-1]
- activity in NotchΔE-EGFP cells (enuc/nuc ratios) [1]: no activity

SMILES: CC(C)C[C@@H](C=O)NC(=O)[C@H](CC(C)C)NC(=O)[C@H](CC(C)C)NC(=O)OCc1ccccc1 [MG132] (Cbz-Leu-Leu-Leu-aldehyde)
- change of reporter localization quantified by automated microscopy [1]: accumulation of NICD in the nucleus

SMILES: CCCCCOC(=O)C1=C(C)NC2=C(C(=O)CC(C)(C)C2)C1c1ccc([N+](=O)[O-])cc1 (stereo not drawn) [ST216093]
- activity in NotchΔE-EGFP cells (enuc/nuc ratios) [1]: show the desired activity

SMILES: CC1=C(C(=O)OC2CCCCC2)C(c2ccc([N+](=O)[O-])cc2)C2=C(CC(C)(C)C/C2=N\OCC(=O)O)N1 (stereo not drawn) [compound 6, E-2-(((3′-Cyclohexyloxycarbonyl-4″-nitrophenyl-2′,7′,7′-trimethyl-1′,4′,5′,6′,7′,8′-hexahydroquinoline-5′-ylidene)amino)oxy)acetic acid]
- activity in NotchΔE-EGFP cells (enuc/nuc ratios) [1]: entirely inactive

SMILES: CC[C@@]1([C@@H]2O[C@@H]([C@H]3O[C@@](O)(CO)[C@H](C)C[C@@H]3C)C[C@@H]2C)CC[C@H]([C@]2(C)CC[C@]3(C[C@H](O)[C@@H](C)[C@@H]([C@@H](C)[C@@H](OC)[C@H](C)C(=O)O)O3)O2)O1 [monensin]
- change of reporter localization quantified by automated microscopy [1]: blocking the anterograde transport of NotchΔE-EGFP

Source: patent US9828344B2, “Inhibitors of the notch signaling pathway and secretion for use in medicine” (Leibniz-Institut für Altersforschung Fritz-Lipmann-Institut …, priority 2012, dated 2017)
